Measurements from US20070264340A1, “Aromachemicals” (Flexitral, Inc., priority 2006, published 2007).

Experiment: stability to acid
Type: physicochemical

stability to acid: stable to acid
Structure (SMILES): CC(C)=CCCC1(C)CC1C=O (racemic) [2-methyl-2-(4-methylpent-3-en-1-yl)cyclopropanecarbaldehyde]
